Reference: ChEMBL document CHEMBL6087451, “Design, Synthesis, and Biological Evaluation of 2-Arylaminopyrimidine Derivatives as Dual Cathepsin L and JAK Inhibitors for the Treatment of Acute Lung Injury” (J Med Chem, 2025)
Active and inactive are the calls of the source. The calls are words filed in the database; no cut-off is given here.

Key:
RAW264.7 [1] = assay: Anti-inflammatory activity against mouse RAW264.7 cells assessed as inhibition of LPS-induced iNOS level by Western blot analysis; type: functional, cell-based; details: dose 50-500 nM
[2] = Half life in Sprague-Dawley rat at 3.5 mg/kg, ip measured for 24 hrs by LC-MS/MS analysis; type: ADME, organism-based; details: in vivo
RAW264.7 [3] = assay: Anti-inflammatory activity against mouse RAW264.7 cells assessed as inhibition of LPS-induced IL-6 level
Mus musculus [4] = assay: Anti-inflammatory activity in C57BL/6 mouse model of LPS-induced acute lung injury assessed as decrease in IL-1beta mRNA level in lung at 10 mg/kg, ip treated for 3 days followed by LPS treatment after 1 hr post-compound administration on fourth day measured after 18 hrs post-LPS treatment by RT-qPCR analysis; type: functional, organism-based; details: time 91.0 hrs
RAW264.7 [5] = assay: Anti-inflammatory activity against mouse RAW264.7 cells assessed as inhibition of LPS-induced TNF-alpha mRNA level at 50 to 500 nM by RT-qPCR analysis; type: functional, cell-based; details: dose 50-500 nM
RAW264.7 [6] = assay: Anti-inflammatory activity against mouse RAW264.7 cells assessed as inhibition of LPS-induced COX-2 level by Western blot analysis; type: functional, cell-based; details: dose 50-500 nM
HBE = assay: Anti-inflammatory activity against HBE cells assessed as inhibition of LPS-induced p-Ikappa-Balpha level pretreated for 30 mis followed by LPS treatment for 16 hrs by Western blot analysis; type: functional, cell-based; details: Homo sapiens, dose 0.5-5 µM, time 16.5 hrs
[7] = AUC (0 to t) in Sprague-Dawley rat at 3.5 mg/kg, iv measured for 24 hrs by LC-MS/MS analysis; type: ADME, organism-based; details: in vivo
Procathepsin L [8] = target: T1, Procathepsin L (Homo sapiens, UniProt P07711); assay: Inhibition of recombinant human Cat L using f Z-Phe-Arg-AMC as substrate preincubated for 30 mins followed by substrate addition
Target sequence in this assay (P07711 whole entry): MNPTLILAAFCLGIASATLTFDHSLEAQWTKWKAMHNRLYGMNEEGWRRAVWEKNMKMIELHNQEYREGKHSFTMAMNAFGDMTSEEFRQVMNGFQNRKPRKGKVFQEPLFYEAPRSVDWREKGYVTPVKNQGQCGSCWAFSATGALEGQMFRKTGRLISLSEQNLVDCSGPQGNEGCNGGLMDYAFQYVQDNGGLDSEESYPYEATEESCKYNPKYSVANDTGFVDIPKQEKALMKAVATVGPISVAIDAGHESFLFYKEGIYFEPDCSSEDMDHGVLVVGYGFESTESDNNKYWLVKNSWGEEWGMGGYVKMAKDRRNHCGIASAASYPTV

[9] = Cmax in Sprague-Dawley rat at 3.5 mg/kg, ip measured for 24 hrs by LC-MS/MS analysis; type: ADME, organism-based; details: in vivo
[10] = AUC (0 to infinity) in Sprague-Dawley rat at 3.5 mg/kg, ip measured for 24 hrs by LC-MS/MS analysis; type: ADME, organism-based; details: in vivo
[11] = AUC (0 to t) in Sprague-Dawley rat at 3.5 mg/kg, ip measured for 24 hrs by LC-MS/MS analysis; type: ADME, organism-based; details: in vivo
[12] = Cmax in Sprague-Dawley rat at 3.5 mg/kg, iv measured for 24 hrs by LC-MS/MS analysis; type: ADME, organism-based; details: in vivo
Mus musculus [13] = assay: In vivo inhibition of mature CTSL in lung of C57BL/6 mouse model of LPS-induced acute lung injury at 10 to 20 mg/kg, ip treated for 3 days followed by LPS treatment after 1 hr post-compound administration on fourth day measured after 18 hrs post-LPS treatment by Western blot analysis; type: functional, organism-based; details: dose 10-20 mg/kg, time 91.0 hrs
cells [14] = details: Homo sapiens, HBE
Description: Anti-inflammatory activity against HBE cells assessed as inhibition of LPS-induced IL-8 level pretreated for 30 mins followed by LPS treatment for 24 hrs by ELISA

Mus musculus [15] = assay: Anti-inflammatory activity in C57BL/6 mouse model of LPS-induced acute lung injury assessed as decrease in inflammatory cell infiltration in lung at 10 mg/kg, ip treated for 3 days followed by LPS treatment after 1 hr post-compound administration on fourth day measured after 18 hrs post-LPS treatment by H and E staining based analysis; type: functional, organism-based; details: time 91.0 hrs
[16] = Anti-inflammatory activity against HBE cells assessed as inhibition of LPS-induced IL-6 level at 5 uM pretreated for 30 mins followed by LPS treatment for 24 hrs by ELISA relative to control; type: functional; details: Homo sapiens, time 24.5 hrs
[17] = Half life in Sprague-Dawley rat at 3.5 mg/kg, po measured for 24 hrs by LC-MS/MS analysis; type: ADME, organism-based; details: in vivo
[18] = AUC (0 to t) in Sprague-Dawley rat at 3.5 mg/kg, po measured for 24 hrs by LC-MS/MS analysis; type: ADME, organism-based; details: in vivo
Mus musculus [19] = assay: Anti-inflammatory activity in C57BL/6 mouse model of LPS-induced acute lung injury assessed as decrease in total protein concentration in BALF at 10 mg/kg, ip treated for 3 days followed by LPS treatment after 1 hr post-compound administration on fourth day measured after 18 hrs post-LPS treatment; type: functional, organism-based; details: time 91.0 hrs
Mus musculus [20] = assay: Anti-inflammatory activity in C57BL/6 mouse model of LPS-induced acute lung injury assessed as decrease in disruption of endothelial cell structures in lung at 10 mg/kg, ip treated for 3 days followed by LPS treatment after 1 hr post-compound administration on fourth day measured after 18 hrs post-LPS treatment by H and E staining based analysis; type: functional, organism-based; details: time 91.0 hrs
[21] = AUC (0 to infinity) in Sprague-Dawley rat at 3.5 mg/kg, iv measured for 24 hrs by LC-MS/MS analysis; type: ADME, organism-based; details: in vivo
RAW264.7 [22] = assay: Anti-inflammatory activity against mouse RAW264.7 cells assessed as inhibition of LPS-induced IL-1beta level
Mus musculus [23] = assay: Anti-inflammatory activity in C57BL/6 mouse model of LPS-induced acute lung injury assessed as decrease in pulmonary edema in lung at 10 mg/kg, ip treated for 3 days followed by LPS treatment after 1 hr post-compound administration on fourth day measured after 18 hrs post-LPS treatment by H and E staining based analysis; type: functional, organism-based; details: time 91.0 hrs
[24] = AUC (0 to infinity) in Sprague-Dawley rat at 3.5 mg/kg, po measured for 24 hrs by LC-MS/MS analysis; type: ADME, organism-based; details: in vivo
RAW264.7 [25] = assay: Anti-inflammatory activity against mouse RAW264.7 cells assessed as inhibition of LPS-induced IL-1beta mRNA level at 50 to 500 nM by RT-qPCR analysis; type: functional, cell-based; details: dose 50-500 nM
Mus musculus [26] = assay: Anti-inflammatory activity in C57BL/6 mouse model of LPS-induced acute lung injury assessed as decrease in number of total cells in BALF at 10 mg/kg, ip treated for 3 days followed by LPS treatment after 1 hr post-compound administration on fourth day measured after 18 hrs post-LPS treatment; type: functional, organism-based; details: time 91.0 hrs
cells [27] = details: Homo sapiens, HBE; remark: listed apart in the source
Description: Anti-inflammatory activity against HBE cells assessed as inhibition of LPS-induced IL-6 level pretreated for 30 mins followed by LPS treatment for 24 hrs by ELISA

[28] = Half life in Sprague-Dawley rat at 3.5 mg/kg, iv measured for 24 hrs by LC-MS/MS analysis; type: ADME, organism-based; details: in vivo
Procathepsin L [29] = target: T1, Procathepsin L; assay: Inhibition of CTSL maturation in HBE cells pretreated for 30 mis followed by LPS treatment for 16 hrs by Western blot analysis; type: cell-based; details: dose 0.5-5 µM, time 16.5 hrs
Target sequence in this assay (P07711 114-333 limits assumed): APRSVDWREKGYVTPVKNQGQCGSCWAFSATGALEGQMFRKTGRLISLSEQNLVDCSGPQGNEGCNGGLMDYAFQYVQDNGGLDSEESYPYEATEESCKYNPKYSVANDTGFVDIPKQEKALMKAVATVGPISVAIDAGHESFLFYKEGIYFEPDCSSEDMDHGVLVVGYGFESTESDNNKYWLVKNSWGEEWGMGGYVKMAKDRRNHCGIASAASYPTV

[30] = Anti-inflammatory activity against HBE cells assessed as inhibition of LPS-induced IL-8 level at 5 uM pretreated for 30 mins followed by LPS treatment for 24 hrs by ELISA relative to control; type: functional; details: Homo sapiens, time 24.5 hrs
Procathepsin L [31] = target: T1, Procathepsin L; assay: Induction of thermal stabilization of pro-CTSL in protein lysate extracted from human THP-1 cells pretreated for 6 hrs followed by heat exposure at 37 to 62 degreeC for 3 mins by CETSA; type: subcellular; details: time 363.0 min
Target sequence in this assay (P07711 114-333 limits assumed): as above

Mus musculus [32] = assay: Anti-inflammatory activity in C57BL/6 mouse model of LPS-induced acute lung injury assessed as decrease in disruption of epithelial cell structures in lung at 10 mg/kg, ip treated for 3 days followed by LPS treatment after 1 hr post-compound administration on fourth day measured after 18 hrs post-LPS treatment by H and E staining based analysis; type: functional, organism-based; details: time 91.0 hrs
RAW264.7 [33] = assay: Anti-inflammatory activity against mouse RAW264.7 cells assessed as inhibition of LPS-induced p38 phosphorylation at 50 to 500 nM by Western blot analysis; type: functional, cell-based; details: dose 50-500 nM

| Structure (SMILES) | inhibition (RAW264.7 [1]) | half-life [2] [h] | IC50 (RAW264.7 [3]) [nM] | Activity (Mus musculus [4]) | inhibition (RAW264.7 [5]) | inhibition (RAW264.7 [6]) | inhibition (HBE) | AUC(0-t) at 24 h [7] [ng·h/mL] | IC50 (Procathepsin L [8]) [nM] | Cmax [9] [ng/mL] | AUC(0-inf) [10] [ng·h/mL] | AUC(0-t) at 24 h [11] [ng·h/mL] | Cmax [12] [ng/mL] | inhibition (Mus musculus [13]) | IC50 (cells [14]) [nM] | Activity (Mus musculus [15]) | inhibition at 5 µM [16] [%] | half-life [17] [h] | AUC(0-t) at 24 h [18] [ng·h/mL] | Activity (Mus musculus [19]) | also measured |
| --- | --- | --- | --- | --- | --- | --- | --- | --- | --- | --- | --- | --- | --- | --- | --- | --- | --- | --- | --- | --- | --- |
| Cl.Cn1cc(-c2ccnc(Nc3cccc(N)c3)n2)c2ccccc21 | Dose-dependent-effect | 4.73 | 50.1 | Active | Active | Dose-dependent-effect | Dose-dependent-effect | 633 | 690 | 193 | 416 | 407 | 655 | Active | 1350 | Active | 83 | 3.21 | 157 | Active | Activity (Mus musculus [20]): Active; AUC(0-inf) [21]: 680 ng·h/mL; IC50 (RAW264.7 [22]): 91.2 nM; Activity (Mus musculus [23]): Active; AUC(0-inf) [24]: 159 ng·h/mL; inhibition (RAW264.7 [25]): Active; Activity (Mus musculus [26]): Active; IC50 (cells [27]): 614 nM; half-life [28]: 8.29 h; inhibition (Procathepsin L [29]): Dose-dependent-effect; inhibition at 5 µM [30]: 85%; Activity (Procathepsin L [31]): Active; Activity (Mus musculus [32]): Active; inhibition (RAW264.7 [33]): Active; Result Indicates Compound Suppresses Mapk Pathway |
| Cc1ccc(Nc2nccc(-c3cn(C)c4ccccc34)n2)cc1N.Cl | Dose-dependent-effect | 5.19 | 144 | Active | Active | Dose-dependent-effect | Dose-dependent-effect | 1630 | 820 | 331 | 1580 | 1510 | 504 | Active | 2080 | Active | 69 | 6.48 | 830 | Active | Activity (Mus musculus [20]): Active; AUC(0-inf) [21]: 1690 ng·h/mL; IC50 (RAW264.7 [22]): 480 nM; Activity (Mus musculus [23]): Active; AUC(0-inf) [24]: 1050 ng·h/mL; inhibition (RAW264.7 [25]): Active; Activity (Mus musculus [26]): Active; IC50 (cells [27]): 1070 nM; half-life [28]: 5.06 h; inhibition (Procathepsin L [29]): Dose-dependent-effect; inhibition at 5 µM [30]: 76%; Activity (Procathepsin L [31]): Active; Activity (Mus musculus [32]): Active; inhibition (RAW264.7 [33]): Active; Result Indicates Compound Suppresses Mapk Pathway |
